# Assay results published in US5866576A, “Epoxide-containing compounds” (Cell Therapeutics, Inc., priority 1997, dated 1999).
# pIC50: −log10 of the molar value.
# Tests used:
# [1] = test system: vascular cell adhesion molecule-1 (VCAM) in human umbilical vein endothelial cells (HUVEC); assay: cell surface expression of VCAM in TNF-α stimulated HUVEC, flow cytometry (FIG. 6); format: cell-based; settings: TNF-α 20 ng/ml, 20 hrs
# Protocol: The HUVEC cells were stimulated with 20 ng/ml TNF-α for 20 hrs and then stained for immunofluorescence using a monoclonal antibody recognizing VCAM, followed by a goat anti-mouse antibody conjugated to phycoerythrin. The cells were analyzed for antibody binding using flow cytometry.
# This example illustrates the effects of inventive compounds nos. 1605, 1808 and 1906 to inhibit cell surface expression of vascular cell adhesion molecule-1 (VCAM) in human umbilical vein endothelial cells (HUVEC). The HUVEC cells were stimulated with 20 ng/ml TNF-α for 20 hrs and then stained for immunofluorescence using a monoclonal antibody recognizing VCAM, followed by a goat anti-mouse antibody conjugated to phycoerythrin. The cells were analyzed for antibody binding using flow cytometry.
# [2] = test system: PBMC (peripheral blood mononuclear cells); assay: two-way mixed lymphocyte reaction, PBMC (FIG. 1); format: cell-based
# Text: This example illustrates the effects of inventive compounds nos. 1605, 1808 and 1906 as immune modulators in a mixed lymphocyte reaction. […] 1605, 1808 and 1906.
# human stromal cells = assay: PDGF-induced proliferation of human stromal cells (FIG. 4); format: cell-based; settings: PDGF-BB 50 ng/ml
# Protocol: (§1) Human stromal cells were starved in serum-free media for 24 hours and then stimulated with 50 ng/ml of PDGF-BB. The drugs were added at various indicated concentrations one hour prior to PDGF stimulation. Tritiated thymidine was added for 24 hrs at the time of PDGF stimulation to measure cellular proliferation. Background counts were approximately 5% of control levels.
# as §1, with “This example illustrates a comparison of inventive compounds nos. 1605, 1808 and 1906 on PDGF-induced (platelet derived growth factor) proliferation of human stromal cells. Human” for “Human”, “hours” for “hrs”
# [3] = test system: U937 cells; human umbilical vein endothelial cells (HUVEC); assay: adhesion of U937 cells to TNF-α activated HUVEC (FIG. 5); format: cell-based; settings: TNF-α 20 ng/ml, 12 hours
# Protocol: HUVEC cells were activated with 20 ng/ml of TNF for 12 hrs. Drug was added to each culture (except for controls) one hour prior to adding TNF. U937 cells, preloaded with the fluorescent dye BCECF, were added to each culture well and then washed. Cell adhesion was determined on a fluorescence plate reader, showing a decrease in cell adhesion caused by all three drugs in a dose dependent fashion.
# This example illustrates a comparison of the effects of inventive compounds nos. 1605, 1808 and 1906 to inhibit adhesion of U937 cells to activated human umbilical vein endothelial cells (HUVEC). HUVEC cells (4000/ well, seeded 72 hours in advance) were activated with 20 ng/ml of TNF-α for 12 hours. Drug was added to the HUVEC (except for controls) one hour prior to adding TNF-α. U937 cells, preloaded with the fluorescent dye BCECF, were added to each culture well and then washed twice with PBS. Cell adhesion was determined by measuring the fluorescence of adhering U937 cells on a fluorescence plate reader.
# thymocytes [4] = assay: thymocyte proliferation co-stimulated with Con A and/or IL-1α (FIG. 2); format: cell-based, Balb/C mice; settings: three dose levels
# Protocol: The thymocytes were obtained from normal female Balb/C mice and stimulated with Concanavalin A (Con A) and/or interleukin-1 alpha (L-1α). Drugs were added to the cell cultures two hours before activation with Con A and/or IL-1α.
# This example illustrates a comparison of three dose levels of inventive compounds nos. 1808 and 1906 and no drug control to inhibit thymocyte proliferation. The thymocytes were obtained from normal female Balb/C mice and co-stimulated with Concanavalin A (Con A) and/or IL-1α (interleukin-1 alpha). The thymuses were dissociated and plated into 96-well plates at a density of 2×10^5 cells/well. Dilutions of Con A and/or IL-1α were added to the wells and the cells were incubated for 4 days at 37° C. Drugs were added to the cell cultures two hours before activation with Con A and/or IL-1α. On day 4, the cells were pulsed with tritiated thymidine and allowed to incubate an additional 4 hrs. The cells were harvested and counted.
# thymocytes [5] = assay: murine thymocyte proliferation assay co-stimulated by ConA and IL-2 (FIGS. 7A-7E); format: cell-based, Balb/C mice; settings: Mus musculus
# Text: This example illustrates dose response curves used to generate 50% inhibition concentrations (IC50) for inventive compounds nos. 1410, 1439, 1541, 1553, 1553S, 1560, 1565, 2548R, 2548S and 2562 in a murine thymocyte proliferation assay, co-stimulated by Concanavalin A (ConA) and interleukin-2 alpha (IL-2). ConA, used to activate the T-cell receptor (TCR), along with IL-2 co-stimulation, induces T-cell proliferation and differentiation. Thymuses, obtained from normal, female Balb/C mice, were dissociated and plated into 96-well plates at a density of 2×10^5 cells/well. ConA (0.25 mg/ml) and IL-2 (15 U/ml) were added to the wells. The cells were incubated for 4 days at 37° C. On day 4, the cells were pulsed with tritiated thymidine and incubated for an additional 4 hours. The amount of tritiated thymidine incorporated by the harvested cells was determined in a liquid scintillation counter. Doses of inventive compounds (shown in FIGS. 7A-7E) were added two hours prior to ConA and IL-2 activation. Background counts were less than 200 cpm. Results obtained, illustrate the ability of the inventive compounds to inhibit thymocyte proliferation and activation. In FIG. 7A, inventive compounds nos. […] FIG. 7B presents additional data for compound no. 1410 and 1553S in this assay. […] FIG. 7C reports assay results for inventive compounds nos. 1439, 1541, 1560 and 1565. […] FIGS. 7D and 7E illustrate assay results for inventive compounds nos. 1541, 1553, 1560 and 1565 (FIG. 7D) and 2562, […] (FIG. 7E). As is true of other inventive compounds tested, all these compounds represented in FIGS. 7D and 7E inhibit thymocyte proliferation. […] 1541, 1553, 1560, 1565, 2562, 2548R and 2548S, respectively.
# murine splenocytes = assay: murine splenocyte proliferation co-stimulated by anti-mu and IL-4 (FIG. 11); format: cell-based; settings: Mus musculus, anti-mu / IL-4 12.5 ng/ml
# Protocol: This example illustrates inhibitive effects of compounds nos. 1439, 1553S, 1560 and 1565 on murine splenocyte proliferation co-stimulated by anti-mu ([…]) and interleukin-4 (IL-4, 12.5 ng/ml). This in vitro assay, described above, is indicative of immune-suppressive/autoimmune treatment assay emphasizing humoral or B cell immune response. This assays are a predictive model for treatment or prevention of autoimmune diseases, such as diabetes, lupus, arthritis, and the like. The assay measures immunosuppressive activity of a drug at the B cell level. Spleens from adult mice contain immature B cells that express surface IgM. Cross-linking the surface IgM with an anti-mu antibody results in B cell proliferation. Additionally, this activation results in an increased expression of interleukin-4 receptors(IL-4R) on the surface of such cells. IL-4 acts as a growth factor for B cells and will increase the amount of proliferation induced by anti-mu.
# A mixture of anti-mu and murine IL-4 is added to murine splenocytes to cause their proliferation. Mice spleens are obtained from adult mice and a single cell suspension is prepared in RPMI 1640 medium supplemented with 10% FCS. Cells (200,000) are plated into flat-bottomed wells and pre-incubated for 1-2 hours with various concentrations of inventive compound or PBS if it is a control. A mixture of anti-mu and murine is added to the wells at a final concentration of 5 μg/ml anti-mu and 12.5 ng/ml IL-4 and plates are incubated for three days. Proliferation is determined on the third day with a pulse of tritiated thymidine. The IC50 concentration of a particular drug is the concentration of drug that results in a 50% inhibition of the proliferation obtained from the positive control.
# thymocytes [6] = assay: IL-2 (ConA co-stimulated) induced proliferation of thymocytes; format: cell-based, mice; settings: Mus musculus, Thymocyte, 96 h; Table II; ConA 0.25 ug/ml / IL2 20 ng/ml, 4 days
# Protocol: This example illustrates the effects of inventive compounds nos. 1105, 1114, 1413, 1439, 1594, 2518, 2548R, 2548S, 2562 and 3503 as effective inhibitors of IL-2 induced proliferation of thymocytes. Single cell suspensions of thymus gland cells obtained from 4-6 week old mice were prepared. Two-hundred thousand cells were plated into individual wells of flat-bottom 96-well plates in RPMI-1640-10% FCS medium. The invention compounds were then added to the wells at varying concentrations and the cells incubated for 1-2 hours at 37° C.
# Following this pre-incubation a mixture of Concanavalin A (ConA) and Interleukin-2 (IL2) was added to the experimental wells at a final concentration of (0.25 ug/ml ConA)/(20 ng/ml IL2). Appropriate positive and negative controls were set up on each plate. Each variable was set up in quadruplicate.
# The plates were incubated for 4 days at 37° C. in a humidified CO2 incubator. On day 4 the wells were pulsed with 1 μCi of tritiated thymidine(3H-TdR) and the plates incubated for an additional 4 hours. The plates were then harvested and the incorporation of 3H-TdR was determined in a liquid scintillation counter. From the CPM obtained from each experimental well an IC-50 for each inventive compound tested was determined. Therefore, a lower reported IC-50 value is indicative of greater inhibition of IL-2-induced proliferation of thymocytes. Table II illustrates IC-50 values (in μM) for inventive compounds inhibiting proliferation at very low concentrations of compound.
# lymph node cells = assay: ovalbumin-induced proliferation in murine lymph cells (FIG. 13); format: cell-based, Balb/C mice; settings: Mus musculus, OVA 200 μg/ml
# Text: This example illustrates effects of the inventive compounds on ovalbumin-induced proliferation in murine lymph cells. Lymphnode cells contain a mixture of lymphoid cells: T-cells, B-cells and macrophages. Although proliferating cells in this assay are T-cells, the response obtained depends on type of antigen-presenting cell (e.g., macrophages) as well as elaboration of various immunoregulatory cytokines. Thus, this assay serves as a good model for T-cell mediated responses and as a valuable screening tool in identifying compounds useful in immunosuppressive therapeutic applications.
# Murine T-cells proliferate in vitro in response to a soluble protein antigen if first primed with a corresponding antigen in vivo. This in vivo priming usually involves emulsifying the antigen in complete Freunds adjuvant and injecting this preparation into an appropriate site on a mouse. In this assay the antigen employed was chicken ovalbumin(OVA). Following emulsification in Freund's complete adjuvant, 50 μg of OVA were injected into both hind footpads of adult Balb/C mice. Fourteen days later the draining lymph nodes(popliteal) were removed and a single cell suspension was prepared in RPMI-1640 (10%FCS) medium. Two hundred thousand lymph node cells are then plated into wells of flat-bottom 96-well plates. Inventive compouds nos. 1410, 1553 (racemic), 1553(S), 1560 and 1565 were added to appropriate wells at various concentrations. OVA, at a final concentration of 200 μg/ml, was added to appropriate wells. Positive and negative controls were established on each plate, all assay variables being set up in quadruplicate.
# The plates were incubated in a humidified, 5% CO2 incubator for 5 days. On the fifth day, 1 μCi of tritiated thymidine was added to each well and the plates were incubated for an additional 4 hours. The plates were harvested and the incorporation of 3H-TdR was determined in a liquid scintillation counter. The CPM data was then used to calculate experimental IC50 values for the compounds tested. Again, IC50 is defined as that concentration of compound resulting in 50% inhibition of 3H-TdR incorporation of the positive control.
# [7] = test system: normal human bone marrow stromal cells (MSC); assay: human bone marrow stromal cell (MSC) proliferation in response to PDGF BB and IL-1α; format: cell-based; settings: Table III, PDGF BB 50 ng/ml and IL-1α 10 ng/ml
# Protocol: This example illustrates the effects of inventive compounds nos. 1114, 1413, 1560, 1565, 1594, 2518, 2548R, 2548S and 3503 as effective inhibitors of normal human bone marrow stromal cells (MSC) proliferation in response to Platelet Derived Growth Factor BB (PDGF B) and IL-1α (50 and 10 ng/ml, respectively).
# MSC were obtained and malintained in exponential growth, released from a growth plate with trypsin and plated into 96 well tissue culture plates in the presence of Fibroblast Growth Factor (FGFβ) for 48 hours. Growth media were removed and the cells were washed once with serum free media. The cells were then incubated 20-24 hours in serum free media.
# After incubation, inventive compounds were added to the cells at the appropriate concentration and then the cells again incubated for 1 hour. PDGF B and IL-1α were added to the cells along with 3H-thymidine and the cells again incubated for an additional 24 hours.
# After 24 hours of incubation, the cells were then harvested to assess incorporation of ^3 H-thymidine into DNA (proliferation). From each harvested cell culture, an IC-50 for each inventive compound tested was determined. Therefore, a lower reported IC-50 value is indicatilve of greater activity of the invention compounds in inhibiting MSC proliferation. Table III illustrates IC-50 values (in μM) for invention compounds inhibiting MSC proliferation at very low concentrations of compound.
compound,measurement,setting,value
"Cc1cn(C)c(=O)n(CCCCC2CO2)c1=O (centres unmarked) [Compound 1906, 3-(5,6-Oxidohexyl)-1-methylthymine]",mean fluorescence (VCAM surface expression),[1],Mean fluorescence levels were decreased
same,activity in mixed lymphocyte reaction (immune modulation),[2],demonstrated activity
same,potency in mixed lymphocyte reaction compared with PTX,[2]; PTX not shown on graph,more potent than PTX
same,inhibition of PDGF-induced proliferation,human stromal cells,inhibited PDGF-induced stimulation in a dose response fashion
same,inhibition of U937 cell adhesion to HUVEC,[3],decrease in cell adhesion induced by TNF-α in a dose dependent fashion
same,inhibition of thymocyte proliferation,thymocytes [4],inhibited thymocyte proliferation is a dose-dependent fashion
"Cn1c(=O)n(CCCCC2CO2)c(=O)c2[nH]cnc21 (centres unmarked) [Compound 1439, 1-(5,6-Oxidohexyl)-3-methylxanthine]",pIC50,thymocytes [5]; FIG. 7C,> 4.60
same,pIC50,murine splenocytes,4.51
same,pIC50,thymocytes [6],5.10
"Cn1cnc2c1c(=O)n(CCCCCCCCC1CO1)c(=O)n2C (centres unmarked) [Compound 1565, 1-(9,10-Oxidodecyl)-3,7-dimethylxanthine]",pIC50,thymocytes [5]; FIG. 7C,4.49
same,pIC50,thymocytes [5]; FIGS. 7D and 7E,4.52
same,pIC50,lymph node cells,4.42
same,pIC50,murine splenocytes,4.40
same,pIC50,[7],4.77
"Cn1cnc2c1c(=O)n(CCCCCC[C@H]1CO1)c(=O)n2C [Compound 1553S, 1-(7(5)-7,8-Oxidooctyl)-3,7-dimethylxanthine]",pIC50,thymocytes [5]; FIG. 7B,4.34
same,pIC50,lymph node cells,4.37
same,pIC50,murine splenocytes,4.30
